Assay results from the supplement of paper PMC10307832.

Assays:
Experiment in all cases: relative viability (nuclei count vs DMSO), 5 days (fraction); higher = more cells survive
BI-D1870 = compound: CC(C)CCN1c2nc(Nc3cc(F)c(O)c(F)c3)ncc2N(C)C(=O)C1C [BI-D1870]
Procedure, shortened: (§1)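 Following overnight incubation at 37 °C, lung cancer cell lines in 1536-well plates were pinned with five library-drug doses (not always all listed) in √10 steps on vehicle-anchored plates. The cells then spent 5 days without medium change before a combined fix, permeabilisation and Hoechst stain, 4× imaging and MetaXpress nuclear counts. Viability is the treated-to-vehicle ratio of nuclei, taken as the median across plates. Only plates with control CV below 25% and at least one doubling passed.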

Zebularine = compound: O=c1ncccn1[C@@H]1O[C@H](CO)[C@@H](O)[C@H]1O [Zebularine]
Procedure, shortened: as §1

Zebularine + Pemetrexed = compound: O=c1ncccn1[C@@H]1O[C@H](CO)[C@@H](O)[C@H]1O [Zebularine] + Nc1nc2[nH]cc(CCc3ccc(C(=O)N[C@@H](CCC(=O)O)C(=O)O)cc3)c2c(=O)[nH]1 [Pemetrexed] (partner 0.2 µM)
Procedure, shortened: (§2)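 Lung cancer cell lines in 1536-well plates were dosed by pin tool the day after seeding, either with one drug alone or with a fixed anchor-drug dose plus five library-drug doses (not always all listed) in √10 steps. After 5 days, cells were fixed and their nuclei stained in one step (final 0.05% Triton X-100, 1% formaldehyde, 1 ug/ml Hoechst), then counted on 4× images. Relative viability is the nuclei count in treated wells divided by that in vehicle wells. Values are medians of duplicate plates.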

BI-D1870 + Alpelisib = compound: CC(C)CCN1c2nc(Nc3cc(F)c(O)c(F)c3)ncc2N(C)C(=O)C1C [BI-D1870] + Cc1nc(NC(=O)N2CCC[C@H]2C(N)=O)sc1-c1ccnc(C(C)(C)C(F)(F)F)c1 [Alpelisib] (partner 2 µM)
Procedure, shortened: as §2

Row | Cell Line | relative viability (BI-D1870; 0.04 µM) | relative viability (BI-D1870; 0.1265 µM) | relative viability (BI-D1870; 0.4 µM) | relative viability (BI-D1870; 1.265 µM) | relative viability (BI-D1870; 4 µM) | relative viability (Zebularine; 1 µM) | relative viability (Zebularine; 3.162 µM) | relative viability (Zebularine; 10 µM) | relative viability (Zebularine; 31.62 µM) | relative viability (Zebularine; 100 µM) | relative viability (Zebularine + Pemetrexed; first compound 1 µM) | relative viability (Zebularine + Pemetrexed; first compound 3.162 µM) | relative viability (Zebularine + Pemetrexed; first compound 10 µM) | relative viability (Zebularine + Pemetrexed; first compound 31.62 µM) | relative viability (Zebularine + Pemetrexed; first compound 100 µM) | relative viability (BI-D1870 + Alpelisib; first compound 0.04 µM) | relative viability (BI-D1870 + Alpelisib; first compound 0.1265 µM) | relative viability (BI-D1870 + Alpelisib; first compound 0.4 µM) | relative viability (BI-D1870 + Alpelisib; first compound 1.265 µM) | relative viability (BI-D1870 + Alpelisib; first compound 4 µM)
1 | NCI-H2023 | 1 | 0.846 | 0.88 | 0.988 | 0.701 | 1.17 | 1 | 0.724 | 0.613 | 0.287 | 0.232 | 0.2 | 0.138 | 0.18 | 0.149 | 0.696 | 0.552 | 0.592 | 0.634 | 0.552
2 | NCI-H2085 | 1.06 | 0.95 | 1.01 | 0.984 | 0.746 | 1 | 0.949 | 0.829 | 0.972 | 0.662 | 0.913 | 0.881 | 0.753 | 0.877 | 0.495 | 0.986 | 0.886 | 0.92 | 0.938 | 0.74
3 | NCI-H2087 | 1.13 | 0.977 | 1.15 | 1.21 | 0.78 | 1.04 | 0.949 | 0.747 | 0.894 | 0.381 | 0.722 | 0.667 | 0.511 | 0.548 | 0.216 | 1.15 | 1.05 | 1.09 | 1.23 | 0.877
4 | NCI-H2126 | 1.05 | 0.889 | 0.981 | 1 | 0.854 | 1.06 | 0.884 | 0.879 | 0.927 | 0.648 | 0.635 | 0.487 | 0.592 | 0.453 | 0.348 | 0.749 | 0.786 | 0.781 | 0.759 | 0.723
5 | NCI-H2170 | 1.06 | 0.925 | 0.961 | 0.949 | 0.843 | 1.1 | 1.01 | 0.933 | 0.975 | 0.693 | 0.273 | 0.289 | 0.273 | 0.27 | 0.221 | 0.867 | 0.705 | 0.818 | 0.751 | 0.772
6 | NCI-H2228 | 0.999 | 0.82 | 0.845 | 1.21 | 0.702 | 1.17 | 1.08 | 0.782 | 0.8 | 0.486 | 0.403 | 0.293 |  | 0.264 | 0.152 | 0.669 | 0.568 | 0.876 | 0.602 | 0.35
7 | NCI-H2347 | 1.14 | 1.02 | 0.964 | 1.06 | 0.894 | 1.11 | 1.05 | 0.753 | 0.583 | 0.489 | 0.459 | 0.466 | 0.402 | 0.361 | 0.335 | 1.07 | 0.984 | 0.816 | 1.14 | 0.848
8 | NCI-H2405 | 1.07 | 0.985 | 1.03 | 1.07 | 0.909 | 1.02 | 0.992 | 0.871 | 0.968 | 0.726 | 1.14 | 0.913 | 0.795 | 1.09 | 0.681 | 0.976 | 0.766 | 0.769 | 0.789 | 0.705
